{"source": "patent US10597388B2", "about": "“Pyridazinone herbicides” (FMC CORPORATION, priority 2014, dated 2020)", "assay_in_all_cases": "Test C greenhouse herbicide test, pre- and postemergence", "type_in_all_cases": "in vivo", "key": {"[1]": {"tested_on": "waterhemp (common waterhemp, Amaranthus rudis)", "how_it_was_run": "(§1)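 Visual 0–100 injury score (100 = complete control) taken against untreated controls after 13–15 d in greenhouse. Test chemicals, formulated in solvent plus surfactant, applied preemergence to seeds in loam–sand soil or postemergence to 1- to 4-leaf plants (2–18 cm).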"}, "[2]": {"tested_on": "lambsquarters (Chenopodium album)", "how_it_was_run": "as §1"}, "[3]": {"tested_on": "blackgrass (Alopecurus myosuroides)", "how_it_was_run": "as §1"}, "[4]": {"tested_on": "corn (Zea mays)", "how_it_was_run": "as §1"}, "[5]": {"tested_on": "wheat (winter wheat, Triticum aestivum)", "how_it_was_run": "as §1"}, "[6]": {"tested_on": "soybean (Glycine max)", "how_it_was_run": "as §1"}, "[7]": {"tested_on": "galium (catchweed bedstraw, Galium aparine)", "how_it_was_run": "as §1"}, "[8]": {"tested_on": "nutsedge, yellow (yellow nutsedge, Cyperus esculentus)", "how_it_was_run": "as §1"}, "[9]": {"tested_on": "barnyardgrass (Echinochloa crus-galli)", "how_it_was_run": "as §1"}, "[10]": {"tested_on": "foxtail, giant (giant foxtail, Setaria faberii)", "how_it_was_run": "as §1"}, "[11]": {"tested_on": "morningglory (Ipomoea coccinea)", "how_it_was_run": "as §1"}, "[12]": {"tested_on": "ryegrass, Italian (Italian ryegrass, Lolium multiflorum)", "how_it_was_run": "as §1"}, "[13]": {"tested_on": "crabgrass, large (large crabgrass, Digitaria sanguinalis)", "how_it_was_run": "as §1"}, "[14]": {"tested_on": "velvetleaf (Abutilon theophrasti)", "how_it_was_run": "as §1"}, "[15]": {"tested_on": "pigweed (Amaranthus retroflexus)", "how_it_was_run": "as §1"}, "[16]": {"details": "Postemergence, 31 g ai/ha, scale 0 to 100 (0 no effect, 100 complete control)"}, "[17]": {"details": "Postemergence, 125 g ai/ha, scale 0 to 100, 0 is no effect, 100 is complete control"}, "[18]": {"details": "Postemergence, 250 g ai/ha, scale 0 to 100, 0 no effect, 100 complete control, 13 to 15 d"}, "[19]": {"details": "Preemergence, 31 g ai/ha, scale 0 to 100, 0 is no effect, 100 is complete control"}, "[20]": {"details": "Preemergence, 62 g ai/ha, scale 0 to 100, 0 is no effect, 100 is complete control"}, "[21]": {"details": "Preemergence, 125 g ai/ha, scale 0 to 100, 0 is no effect, 100 is complete control"}, "[22]": {"details": "Preemergence, 250 g ai/ha, scale 0 to 100, 0 no effect, 100 complete control"}, "[23]": {"details": "postemergence, 62 g ai/ha, scale 0 to 100, 0 no effect, 100 complete control"}}}
{"smiles": "CCCC(=O)Oc1c(C)nn(C)c(=O)c1-c1c(C)sc2ccc(C)cc12", "note": "[Compound 105]", "values": [{"measurement": "Plant response rating, Waterhemp", "setting": "[1]; [16]", "value": 80}, {"measurement": "Plant response rating, Waterhemp", "setting": "[1]; [17]", "value": 100}, {"measurement": "Plant response rating, Waterhemp", "setting": "[1]; [18]", "value": 98}, {"measurement": "Plant response rating, Waterhemp", "setting": "[1]; [19]", "value": 90}, {"measurement": "Plant response rating, Waterhemp", "setting": "[1]; [20]", "value": 95}, {"measurement": "Plant response rating, Waterhemp", "setting": "[1]; [21]", "value": 100}, {"measurement": "Waterhemp plant response rating", "setting": "[1]; [22]", "value": 100}, {"measurement": "Plant response rating, Lambsquarters", "setting": "[2]; [16]", "value": 85}, {"measurement": "Plant response rating, Lambsquarters", "setting": "[2]; [17]", "value": 100}, {"measurement": "Plant response rating, Lambsquarters", "setting": "[2]; [18]", "value": 100}, {"measurement": "Plant response rating, Lambsquarters", "setting": "[2]; [19]", "value": 95}, {"measurement": "Plant response rating, Lambsquarters", "setting": "[2]; [20]", "value": 85}, {"measurement": "Plant response rating, Lambsquarters", "setting": "[2]; [21]", "value": 90}, {"measurement": "Lambsquarters plant response rating", "setting": "[2]; [22]", "value": 95}, {"measurement": "Plant response rating, Blackgrass", "setting": "[3]; [16]", "value": 15}, {"measurement": "Plant response rating, Blackgrass", "setting": "[3]; [17]", "value": 50}, {"measurement": "Plant response rating, Blackgrass", "setting": "[3]; [18]", "value": 60}, {"measurement": "Plant response rating, Blackgrass", "setting": "[3]; [19]", "value": 20}, {"measurement": "Plant response rating, Blackgrass", "setting": "[3]; [20]", "value": 50}, {"measurement": "Plant response rating, Blackgrass", "setting": "[3]; [21]", "value": 55}, {"measurement": "Blackgrass plant response rating", "setting": "[3]; [22]", "value": 90}, {"measurement": "Blackgrass plant response rating", "setting": "[3]; [23]", "value": 40}, {"measurement": "Plant response rating, Corn", "setting": "[4]; [16]", "value": 10}, {"measurement": "Plant response rating, Corn", "setting": "[4]; [17]", "value": 30}, {"measurement": "Plant response rating, Corn", "setting": "[4]; [18]", "value": 30}, {"measurement": "Plant response rating, Corn", "setting": "[4]; [19]", "value": 0}, {"measurement": "Plant response rating, Corn", "setting": "[4]; [20]", "value": 0}, {"measurement": "Plant response rating, Corn", "setting": "[4]; [21]", "value": 5}, {"measurement": "Corn plant response rating", "setting": "[4]; [22]", "value": 25}, {"measurement": "Corn plant response rating", "setting": "[4]; [23]", "value": 15}, {"measurement": "Plant response rating, Wheat", "setting": "[5]; [16]", "value": 0}, {"measurement": "Plant response rating, Wheat", "setting": "[5]; [17]", "value": 5}, {"measurement": "Plant response rating, Wheat", "setting": "[5]; [18]", "value": 5}, {"measurement": "Plant response rating, Wheat", "setting": "[5]; [19]", "value": 0}, {"measurement": "Plant response rating, Wheat", "setting": "[5]; [20]", "value": 10}, {"measurement": "Plant response rating, Wheat", "setting": "[5]; [21]", "value": 10}, {"measurement": "Wheat plant response rating", "setting": "[5]; [22]", "value": 5}, {"measurement": "Plant response rating, Soybean", "setting": "[6]; [16]", "value": 5}, {"measurement": "Plant response rating, Soybean", "setting": "[6]; [17]", "value": 10}, {"measurement": "Plant response rating, Soybean", "setting": "[6]; [18]", "value": 40}, {"measurement": "Plant response rating, Soybean", "setting": "[6]; [19]", "value": 0}, {"measurement": "Plant response rating, Soybean", "setting": "[6]; [20]", "value": 0}, {"measurement": "Plant response rating, Soybean", "setting": "[6]; [21]", "value": 0}, {"measurement": "Soybean plant response rating", "setting": "[6]; [22]", "value": 0}, {"measurement": "Plant response rating, Galium", "setting": "[7]; [16]", "value": 95}, {"measurement": "Plant response rating, Galium", "setting": "[7]; [17]", "value": 95}, {"measurement": "Plant response rating, Galium", "setting": "[7]; [18]", "value": 100}, {"measurement": "Plant response rating, Galium", "setting": "[7]; [19]", "value": 85}, {"measurement": "Plant response rating, Galium", "setting": "[7]; [20]", "value": 90}, {"measurement": "Plant response rating, Galium", "setting": "[7]; [21]", "value": 95}, {"measurement": "Galium plant response rating", "setting": "[7]; [22]", "value": 98}, {"measurement": "Plant response rating, Nutsedge, Yellow", "setting": "[8]; [16]", "value": 55}, {"measurement": "Plant response rating, Nutsedge, Yellow", "setting": "[8]; [17]", "value": 75}, {"measurement": "Plant response rating, Nutsedge, Yellow", "setting": "[8]; [18]", "value": 90}, {"measurement": "Plant response rating, Nutsedge, Yellow", "setting": "[8]; [19]", "value": 40}, {"measurement": "Plant response rating, Nutsedge, Yellow", "setting": "[8]; [20]", "value": 45}, {"measurement": "Plant response rating, Nutsedge, Yellow", "setting": "[8]; [21]", "value": 40}, {"measurement": "Nutsedge, Yellow plant response rating", "setting": "[8]; [22]", "value": 85}, {"measurement": "Plant response rating, Barnyardgrass", "setting": "[9]; [16]", "value": 10}, {"measurement": "Plant response rating, Barnyardgrass", "setting": "[9]; [17]", "value": 25}, {"measurement": "Plant response rating, Barnyardgrass", "setting": "[9]; [18]", "value": 20}, {"measurement": "Plant response rating, Barnyardgrass", "setting": "[9]; [19]", "value": 0}, {"measurement": "Plant response rating, Barnyardgrass", "setting": "[9]; [20]", "value": 30}, {"measurement": "Plant response rating, Barnyardgrass", "setting": "[9]; [21]", "value": 60}, {"measurement": "Barnyardgrass plant response rating", "setting": "[9]; [22]", "value": 90}, {"measurement": "Barnyardgrass plant response rating", "setting": "[9]; [23]", "value": 25}, {"measurement": "Plant response rating, Foxtail, Giant", "setting": "[10]; [16]", "value": 40}, {"measurement": "Plant response rating, Foxtail, Giant", "setting": "[10]; [17]", "value": 75}, {"measurement": "Plant response rating, Foxtail, Giant", "setting": "[10]; [18]", "value": 85}, {"measurement": "Plant response rating, Foxtail, Giant", "setting": "[10]; [19]", "value": 60}, {"measurement": "Plant response rating, Foxtail, Giant", "setting": "[10]; [20]", "value": 80}, {"measurement": "Plant response rating, Foxtail, Giant", "setting": "[10]; [21]", "value": 90}, {"measurement": "Foxtail, Giant plant response rating", "setting": "[10]; [22]", "value": 100}, {"measurement": "Plant response rating, Morningglory", "setting": "[11]; [16]", "value": 100}, {"measurement": "Plant response rating, Morningglory", "setting": "[11]; [17]", "value": 100}, {"measurement": "Plant response rating, Morningglory", "setting": "[11]; [18]", "value": 100}, {"measurement": "Plant response rating, Morningglory", "setting": "[11]; [19]", "value": 85}, {"measurement": "Plant response rating, Morningglory", "setting": "[11]; [20]", "value": 90}, {"measurement": "Plant response rating, Morningglory", "setting": "[11]; [21]", "value": 100}, {"measurement": "Morningglory plant response rating", "setting": "[11]; [22]", "value": 95}, {"measurement": "Plant response rating, Ryegrass, Italian", "setting": "[12]; [16]", "value": 85}, {"measurement": "Plant response rating, Ryegrass, Italian", "setting": "[12]; [17]", "value": 90}, {"measurement": "Plant response rating, Ryegrass, Italian", "setting": "[12]; [18]", "value": 80}, {"measurement": "Plant response rating, Ryegrass, Italian", "setting": "[12]; [19]", "value": 40}, {"measurement": "Plant response rating, Ryegrass, Italian", "setting": "[12]; [20]", "value": 90}, {"measurement": "Plant response rating, Ryegrass, Italian", "setting": "[12]; [21]", "value": 90}, {"measurement": "Ryegrass, Italian plant response rating", "setting": "[12]; [22]", "value": 95}, {"measurement": "Plant response rating, Crabgrass, Large", "setting": "[13]; [16]", "value": 20}, {"measurement": "Plant response rating, Crabgrass, Large", "setting": "[13]; [17]", "value": 20}, {"measurement": "Plant response rating, Crabgrass, Large", "setting": "[13]; [18]", "value": 30}, {"measurement": "Plant response rating, Crabgrass, Large", "setting": "[13]; [19]", "value": 20}, {"measurement": "Plant response rating, Crabgrass, Large", "setting": "[13]; [20]", "value": 50}, {"measurement": "Plant response rating, Crabgrass, Large", "setting": "[13]; [21]", "value": 75}, {"measurement": "Crabgrass, Large plant response rating", "setting": "[13]; [22]", "value": 80}, {"measurement": "Crabgrass, Large plant response rating", "setting": "[13]; [23]", "value": 30}, {"measurement": "Plant response rating, Velvetleaf", "setting": "[14]; [16]", "value": 75}, {"measurement": "Plant response rating, Velvetleaf", "setting": "[14]; [17]", "value": 90}, {"measurement": "Plant response rating, Velvetleaf", "setting": "[14]; [18]", "value": 100}, {"measurement": "Plant response rating, Velvetleaf", "setting": "[14]; [19]", "value": 60}, {"measurement": "Plant response rating, Velvetleaf", "setting": "[14]; [20]", "value": 85}, {"measurement": "Plant response rating, Velvetleaf", "setting": "[14]; [21]", "value": 90}, {"measurement": "Velvetleaf plant response rating", "setting": "[14]; [22]", "value": 95}, {"measurement": "Plant response rating, Pigweed", "setting": "[15]; [16]", "value": 85}, {"measurement": "Plant response rating, Pigweed", "setting": "[15]; [17]", "value": 100}, {"measurement": "Plant response rating, Pigweed", "setting": "[15]; [18]", "value": 98}, {"measurement": "Plant response rating, Pigweed", "setting": "[15]; [19]", "value": 98}, {"measurement": "Plant response rating, Pigweed", "setting": "[15]; [20]", "value": 100}, {"measurement": "Plant response rating, Pigweed", "setting": "[15]; [21]", "value": 100}, {"measurement": "Pigweed plant response rating", "setting": "[15]; [22]", "value": 100}]}
